These results are taken from PubChem BioAssay (NCI).

What all share (experiment): NCI anticancer screen, dose series, 48 h
Assay [1] relates to MDA-MB-435.
Assay [2] deals with NCI-H522 lung.
Assay [3] has as its system 786-0 renal.
The subject of assay [4] is PC-3 prostate.
Assay [5] concerns DU-145 prostate.
Assay [6] has as its system A498 renal.
Assay [7] deals with MDA-N.
In assay [8] the test system is SK-MEL-5 melanoma.
The subject of assay [9] is ACHN renal.
The subject of assay [10] is HCC-2998 colon.
Assay [11] concerns SNB-75 CNS.

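Interpolation was linear, between the two tested concentrations surrounding the appropriate level; five concentrations were tested over 48 hours in 96-well plates. GI50 = concentration required for 50% inhibition of growth. TGI is the concentration that stops growth completely.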

Turning to `c1ccc(CCN2CCOCC2)nc1`, the TGI in [1], in assay [2], in assay [3], in assay [4], in assay [5] and in [6] was more than 100 µM in each case. The TGI in assay [7], in assay [8], in [9] and in assay [10] was more than 100 µM throughout.
In the case of `O=C(Nc1cccc([N+](=O)[O-])c1)C(=O)C(C(=O)c1ccccc1F)C1OC(=O)C2C=CC=CC21` (stereo unspecified), the TGI was 55.7 µM in assay [2]; 84.9 µM in [11]; more than 100 µM in [6]; more than 100 µM in assay [8]; more than 100 µM in assay [9]; more than 100 µM in assay [10].
On to `N#Cc1c(-c2cccc(Cl)c2)cc(-c2ccc(Cl)cc2)nc1N`, for which the TGI was 37.6 µM in assay [1]; 30.8 µM in [2]; 33.5 µM in assay [3]; 49.2 µM in [4]; more than 100 µM in assay [5]; 42.3 µM in assay [7]. Further, the TGI in assay [8] is 30.1 µM; in assay [9] it was 41.6 µM.
For `CCOC(=O)C(=O)Nc1c(CC)cccc1C(C)CC` (stereo unspecified), the TGI in assay [2], in [11], in [6], in assay [8], in assay [9] and in assay [10] was more than 100 µM throughout.
Turning to `Cc1nc2c(O)cc3c4c(n(Cc5ccccc5)c3c2nc1C)C(=O)CCC4`, the TGI in assay [1] is more than 100 µM; in [3], 69.1 µM; in [4], more than 100 µM; in [5] it was more than 100 µM; in [6] it was more than 100 µM; in assay [7], more than 100 µM. The TGI in assay [8], in [9] and in assay [10] was more than 100 µM in each case.
Consider `O=C1C(c2c(O)[nH]c3ccccc23)=Nc2ccc(Br)cc21`, for which the TGI in assay [1] was more than 100 µM; in assay [2], more than 100 µM; in assay [3] it was 28.8 µM; in assay [11], 34.9 µM; in assay [4], 49.7 µM; in assay [5], more than 100 µM. For the same molecule, the TGI was 21 µM in assay [6]; more than 100 µM in [7]; more than 100 µM in assay [8]; 77 µM in [9]; more than 100 µM in assay [10].
Regarding `COc1cc(NC(=O)CSc2nc3ccccc3c(=O)n2CCc2ccccc2)cc(OC)c1OC`, the GI50 in [2] is 1.65 µM; in assay [11], 2.23 µM; in [5] it was 4.98 µM. Besides, the figures for the TGI in assay [2], in [11] and in [5] were 4.2 µM, 11 µM and more than 100 µM, respectively.
Turning to `O=C1C(=c2cc3c(c4ccccc24)=NC24CCCCC2C(c2ccccc2)C=C(c2ccccc2)N34)C(=O)c2ccccc21` (stereo unspecified), the TGI in assay [1] is 70.8 µM; in [2] it was 47.5 µM; in assay [3], more than 100 µM; in [11], more than 100 µM; in assay [4], more than 100 µM; in [5], more than 100 µM. Also, the TGI in [6], in assay [7], in assay [8] and in assay [9] was more than 100 µM throughout.
For the molecule `CCCC1=C(C(=O)OCC)C(c2ccccc2OC)C(C#N)=C(N)O1` (stereo unspecified), the GI50 in [1] is 46.3 µM; in [2], 25.5 µM; in [11], 32.2 µM; in assay [5], 29.3 µM; in assay [6], 62.2 µM; in assay [8], 23.9 µM. Moreover, the GI50 in assay [9] was 48.1 µM; in assay [10], 77.3 µM. The TGI in assay [1] is more than 100 µM; in [2], 60.5 µM; in assay [11], more than 100 µM; in assay [5] it was more than 100 µM; in assay [6] it was more than 100 µM; in [8] it was 64.7 µM. Besides, the TGI in assay [9] and in [10] was more than 100 µM in each case.
Turning to `CNS(=O)(=O)c1ccc2[nH]c(O)c(C3=Nc4ccccc4C3=O)c2c1`, the TGI in [1], in assay [2], in assay [11], in assay [4], in [5] and in [6] was more than 100 µM in each case. The TGI in assay [7], in assay [8], in assay [9] and in [10] was more than 100 µM throughout.
With `COc1cc2c(cc1OC)C1Cc3cc(OC)c(OC)cc3C(C2)O1`, the TGI in [1], in assay [11], in assay [4], in assay [5], in [7] and in assay [9] was more than 100 µM in each case. In assay [10], this molecule yielded a TGI of more than 100 µM.
`Nc1cccc2c1C1=NNC(=O)CC1C2` (stereo unspecified): the TGI in assay [2], in assay [11], in assay [6], in assay [8] and in assay [10] was more than 100 µM throughout.
On to `O=C(NCCNc1nccc(-c2c(-c3cccc(O)c3)nc3sccn23)n1)Nc1cccc(C(F)(F)F)c1`, for which the GI50 in [1] is 2.04 µM; in assay [2], 2.11 µM; in assay [11], 2.5 µM; in assay [4], 2.94 µM; in assay [5] it was 5.37 µM; in assay [6], 7.33 µM. In addition, the GI50 was 2.62 µM in [8], 5.79 µM in assay [9] and 2.68 µM in [10]. Further, the TGI in assay [1] stood at 4.94 µM; in [2] it was 5 µM; in [11], 12.7 µM; in assay [4], 12.6 µM; in [5] it was 30 µM; in [6], 32.6 µM. For the same molecule, the TGI in assay [8] was 8.43 µM; in assay [9], 45.7 µM; in [10], 5.77 µM.
`CC(=O)N1CC(=O)NC1=S`: the TGI in assay [2], in assay [3], in assay [11], in assay [8] and in assay [9] was more than 100 µM each time.
For `CSc1ccc(-c2cc(-c3nc4ccccc4[nH]3)nc(N)c2C#N)cc1`, the TGI in [1] was 47.2 µM; in assay [2], 46.8 µM; in [3], more than 100 µM; in assay [11], 57.8 µM; in assay [4], 98.7 µM; in assay [5], 66.9 µM. For the same molecule, the TGI in assay [6] was 50 µM; in [7] it was 66.1 µM; in [8], 29 µM; in assay [9], more than 100 µM; in [10], 33.1 µM.
`Cc1c2cc[n+](C)cc2c(C)c2c1[nH]c1ccc(Cl)cc12`: the TGI in assay [1] is more than 64.4 µM; in assay [2], 2.38 µM; in assay [3] it was 5.76 µM; in assay [11] it was 1.05 µM; in assay [4] it was more than 43.2 µM; in assay [5], 30.5 µM. The TGI was 1.4 µM in assay [6]; more than 59.3 µM in assay [7]; 5.99 µM in [8]; 61.7 µM in assay [9]; 13.8 µM in assay [10].
With `N#CCCOCN(CO)c1nc(N(CO)COCCC#N)nc(N(CO)COCCC#N)n1`, the results for the TGI in assay [2], in assay [6] and in assay [9] were 47.5 µM, more than 100 µM and 76.1 µM, respectively.
As for `C=Cc1cc(OC)c2c(c1)c(=O)oc1c2cc(OC)c2c(O)ccc(C3OC(C)C(O)C(C)(O)C3O)c21` (stereo unspecified), the TGI in [1] stood at 0.00365 µM; in assay [4], 0.00405 µM; in assay [5], 0.00897 µM; in assay [7] it was 0.00425 µM. Further, the GI50 in assay [11] was 0.00041 µM; in assay [6], 0.00121 µM; in assay [10], 0.00253 µM.
As for `CN=C(N)/N=C(\N)Nc1cc2ccccc2c2ccccc12`, the TGI is 32.4 µM in [1]; 26.2 µM in assay [2]; 25.5 µM in assay [3]; 27.6 µM in assay [11]; 29.5 µM in assay [4]; 32.3 µM in assay [5]. Also, the TGI is 23.3 µM in assay [6]; 27.8 µM in assay [7]; 30.6 µM in [8]; 26.3 µM in [9]; 6.78 µM in assay [10].
On to `CC(C)(O)CO/N=C1\C(c2c(O)[nH]c3ccccc23)=Nc2ccccc21`, for which the TGI in [1] is more than 42.3 µM; in assay [2], more than 47.8 µM; in assay [3] it was more than 44.4 µM; in assay [11], 9.72 µM; in assay [4], 12.4 µM; in assay [5], more than 22.2 µM. The TGI in assay [6] was 3.63 µM; in assay [7], more than 45 µM; in assay [8], 2.28 µM; in assay [9], 8.01 µM; in [10] it was 3.27 µM.
Take `Cc1c(NC(=O)c2cc([N+](=O)[O-])cc([N+](=O)[O-])c2)c(=O)n(-c2ccccc2)n1C`: the TGI in assay [1], in assay [3], in assay [4], in assay [5], in [6] and in [7] was more than 100 µM each time. Also, the TGI in [8] was more than 100 µM.
For `NC(=O)Nc1ccc(C(=O)NCCCNC(=O)c2ccc(NC(N)=O)cc2)cc1`, the TGI in assay [1], in assay [2], in [11], in [4], in [5] and in assay [6] was more than 100 µM throughout. The TGI in assay [7], in assay [8], in [9] and in assay [10] was more than 100 µM in each case.
Regarding `COc1c(O)c(O)c2c(c1O)C(=O)c1cc(C)cc(O)c1C2=O`, the TGI was more than 100 µM in assay [1]; 48.1 µM in [2]; more than 100 µM in assay [3]; more than 86.5 µM in assay [11]; more than 100 µM in assay [4]; more than 100 µM in assay [5]. Besides, the TGI in [6], in assay [7], in assay [8], in assay [9] and in [10] was more than 100 µM each time.
As for `Cc1ccc([N+](=O)[O-])cc1S(=O)(=O)Nc1ccc(C2=NN(C(=O)c3ccccc3)C(c3cccs3)C2)cc1` (stereo unspecified), the TGI in assay [1] was more than 100 µM; in [2] it was 70.8 µM; in assay [3] it was 45.2 µM; in [11] it was 67 µM; in [4] it was more than 100 µM; in assay [5], more than 100 µM. Also, the TGI in assay [6] is 50.8 µM; in [7] it was 77.4 µM; in [8], 32.7 µM; in [9], more than 100 µM.
Regarding `COc1ccccc1/C=C/c1c(N)ncnc1Nc1cccc(Cl)c1`, the TGI in assay [1] is 33.1 µM; in assay [2], 30.5 µM; in assay [3] it was 26.6 µM; in [11] it was 23.6 µM; in [4], 0.97 µM; in assay [5], more than 100 µM. The TGI in assay [6] is 30.9 µM; in assay [7], 55.8 µM; in assay [8], 43.4 µM; in assay [9] it was 26 µM; in assay [10], more than 100 µM.
For the molecule `Cc1ccc2ccc3ccc(C)nc3c2n1`, the TGI in [1], in assay [2], in [3], in [11], in assay [4] and in assay [5] was more than 100 µM in each case. In addition, the TGI in assay [6], in assay [7], in [8], in assay [9] and in assay [10] was more than 100 µM each time.
